Columns and labels:
[1] = tested on: embryonic stem cells; assay: Embryonic stem cells treated with NAD+ synthesis inhibitor FK866 and NAD precursors (NAD level, AP activity, apoptosis); type: cell-based, human; settings: co-treatment with FK866; also in mTeSR1-CDM
Method: Embryonic stem cells were treated with nicotinamide and related compounds, and after 6 days, protein was isolated from the cells. NAD cycling enzyme was added to and reacted with 20 μg of the protein per each group at room temperature for 5 minutes, and then a NADH developer was added and reacted therewith for 2-3 hours. The absorbance at 450 nm was measured using a microplate reader, and the amount of the […] was quantified.
AP staining was performed using a commercial AP kit (Sigma) according to the manufacturer's instruction. Images of AP-positive cells were recorded with HP Scanjet G4010. Also, bight field images were obtained with an Olympus microscope (IX51, Olympus, Japan).
In order to examine the effect of nicotinamide on a reduction in the apoptosis of human pluripotent stem cells, dual apoptosis assay (Biotium, Hayward, Calif.) was performed. Embryonic stem cells or cells reprogrammed were stained with NucView™488 Caspase-3 Substrate (green)/Annextin V (red) at room temperature for 30 minutes, followed by washing with PBS. At least 4 sections of each sample were imaged with an Olympus fluorescence microscope (IX51, Olympus), and the number of cells stained with green (Caspase-3) was counted to quantify the degree of apoptosis.

[2] = tested on: human fibroblasts transfected with reprogramming factors; assay: Reprogramming kinetics of hiPSCs (stem cell marker expression, time to colonies); type: cell-based
Method: Total RNA was isolated from produced cells using an RNeasy Mini kit (Qiagen, Valencia, Calif.) and reverse-transcribed using a SuperScript First-strand synthesis system kit (Invitrogen) according to the manufacturer's instruction. Then, semi-quantitative RT-PCR was performed using a platinum Tag SuperMix kit (Invitrogen) under the following conditions: 94° C. for 3 minutes, and then 25-30 cycles, each consisting of 94° C. for 30 sec, 60° C. for 30 sec and 72° C. for 30 sec, followed by extension at 72° C. for 10 minutes. For immunostaining, cells were seeded on Matrigel-coated 4-well Lab-Tek chamber slides (Nunc, Naperville, Ill.) and cultured for 5 days under the indicated conditions. The cells were fixed in 4% paraformaldehyde at room temperature for 15 minutes, and then washed with PBS/0.2% BSA. Next, the cells were passed through PBS/0.2% BSA/0.1% Triton X-100 for 15 minutes, and then incubated with 4% normal donkey serum (Molecular Probes, Eugene, Oreg., USA) in PBS/0.2% BSA at room temperature for 1 hour. The cells were diluted with PBS/0.2% BSA, and then reacted with primary antibody at 4° C. for 2 hours. After washing, the cells were reacted with FITC- or Alexa594-conjugated secondary antibody (Invitrogen) in PBS/0.2% BSA at room temperature for 1 hour. The cells were counter-stained with 10 μg/ml DAPI. […] From day 5 of culture (D5), the expression levels of the stem cell markers Nanog and Tra-1-60 in the cell group treated with nicotinamide increased by 3 times and 8 times, respectively, compared to those in the untreated group (FIG. 6).

[3] = tested on: human fibroblasts transfected with reprogramming factor OSKM; assay: Mitochondrial membrane potential during reprogramming (JC-1, flow cytometry); type: cell-based; settings: 1 mM
Method: At different time points of reprogramming, the cells of a control group and a nicotinamide-treated group (Nam) were dissociated with single cells by trypsin, and then stained with JC-1 (5,5′,6,6′-tetraachloro-1,1′,3,3′-tetraethylbenzimidazolocarbocyanine iodide) solution at 37° C. for 15 minutes. After washing, the degree of fluorescence staining was measured by flow cytometry, relative mitochondrial membrane potential was quantified by the red/green ratio.

[4] = tested on: p53, p21 and p16; assay: Expression of senescence-associated signaling factors (immunostaining, Western blot, real-time PCR); type: cell-based, human
Method: Total RNA was isolated from produced cells using an RNeasy Mini kit (Qiagen, Valencia, Calif.) and reverse-transcribed using a SuperScript First-strand synthesis system kit (Invitrogen) according to the manufacturer's instruction. Then, semi-quantitative RT-PCR was performed using a platinum Tag SuperMix kit (Invitrogen) under the following conditions: 94° C. for 3 minutes, and then 25-30 cycles, each consisting of 94° C. for 30 sec, 60° C. for 30 sec and 72° C. for 30 sec, followed by extension at 72° C. for 10 minutes.
For immunostaining, cells were seeded on Matrigel-coated 4-well Lab-Tek chamber slides (Nunc, Naperville, Ill.) and cultured for 5 days under the indicated conditions. […]
Cells were lysed with RIPA buffer (containing 50 mM Tris, pH 8.0, 150 mM NaCl, 1% NP-40, 0.1% SDS, 0.5% deoxycholic acid, 1 mM PMSF) and mixed with a protease inhibitor (Roche Applied Science, Indianapolis, Ind.) on ice for 15 minutes, followed by centrifugation at 20,000×g at 4° C. for 10 minutes. The supernatant was re-centrifuged for 10 minutes, and the protein concentration was measured using a BCA protein assay kit (Pierce, Rockford, Ill.). […] The density of the bands was analyzed using Image Gauge software (Fuji Photo Film GMBH, D) and normalized to the bands of the loading control (β-actin). […]

[5] = from day 5 of culture, compared to untreated group

NC(=O)c1cccnc1 [nicotinamide]
recovery from damage caused by FK866 [1]: recovered
period of time required until hiPSCs colonies ([2]; cells treated with nicotinamide, 3 weeks or more generally required): ≤ 2 weeks
increase in expression level of stem cell marker Nanog (immunostaining) [2, 5]: 3 times
increase in expression level of stem cell marker Tra-1-60 (immunostaining) [2, 5]: 8 times
mRNA expression levels of Nanog and TERT ([2]; from day 7, real-time PCR): rapidly increased
membrane potential of mitochondria in reprogramming conditions [3]: the membrane potential was maintained
mRNA and protein expression levels of p53, p21 and p16 ([4]; 1 mM, reprogramming process): significantly decreased
inhibition of expression of senescence factors p53, p27, p21 and p16 ([4]; high concentration (20 mM)): did not appear

— patent US20150072416A1, “METABOLITE FOR IMPROVING PRODUCTION, MAINTENANCE AND PROLIFERATION OF PLURIPOTENT STEM CELLS, COMPOSITION COMPRISING THE SAME, AND METHOD OF CULTURING PLURIPOTENT STEM CELL USING THE SAME” (KOREA RESEARCH INSTITUTE OF BIOSCIENCE AND BIOTENOLOGY, priority 2012, published 2015)
